# Laboratory results taken from patent US12139499B2, “Heteroaryl compounds for treating Huntington's disease” (PTC THERAPEUTICS, INC., priority 2018, dated 2024).
# Tested on: Endogenous Huntingtin Protein
# Assay: Endogenous Huntingtin Protein Assay (ELISA-based MSD electrochemiluminescence)
# Format: cell-based
# Settings: Table 1
# Summary of the method: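 Huntingtin was captured overnight at 4 °C on plates coated with 1 μg/mL MW1 (polyQ-expanded) or MAB2166 antibody and BSA-blocked. Detection used a rabbit monoclonal and then a SULFO-TAG goat anti-rabbit antibody (0.25 μg/mL, 1 h each, room temperature). Signal was read by electrochemiluminescence.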
row,SMILES,IC50
1,"Cc1cn2cc(-c3ncc4nc(N(C)C5CC6CCC(C5)N6)sc4n3)cc(C#N)c2n1 (stereo not drawn) [Compound 207, 6-{2-[(3-exo)-8-azabicyclo[3.2.1]oct-3-yl(methyl)amino][1,3]thiazolo[5,4-d]pyrimidin-5-yl}-2-methylimidazo[1,2-a]pyridine-8-carbonitrile]",≤ 100 nM
2,"Cc1cn2cc(-c3cnc4nc(N(C)C5CCNCC5)sc4n3)cc(C)c2n1 [Compound 288, 6-(2,8-dimethylimidazo[1,2-a]pyridin-6-yl)-N-methyl-N-(piperidin-4-yl)[1,3]thiazolo[4,5-b]pyrazin-2-amine]",100 to 500 nM
3,"CN[C@H]1CC[C@@H](N(C)c2nc3nnc(-c4ccc(-c5cn[nH]c5)cc4O)cc3s2)CC1 [Compound 345, 2-(6-{methyl[(1s,4s)-4-(methylamino)cyclohexyl]amino}[1,3]thiazolo[4,5-c]pyridazin-3-yl)-5-(1H-pyrazol-4-yl)phenol]",100 to 500 nM
4,"Oc1cc(-c2c[nH]nc2F)ccc1-c1cc2sc(N3CC4(CNC4)C3)nc2nn1 [Compound 368, 2-[6-(2,6-diazaspiro[3.3]heptan-2-yl)[1,3]thiazolo[4,5-c]pyridazin-3-yl]-5-(3-fluoro-1H-pyrazol-4-yl)phenol]",100 to 500 nM
5,"Cn1cc2cc(-c3cc(Cl)c4nc(C5=CCNCC5)sc4c3)cc(F)c2n1 [Compound 153, 4-chloro-6-(7-fluoro-2-methyl-2H-indazol-5-yl)-2-(1,2,3,6-tetrahydropyridin-4-yl)-1,3-benzothiazole]",1000 to 3000 nM
6,"Cc1cn2cc(-c3cc4sc(N(C)C5CC6(C)CCC(C)(C5)N6)nc4cn3)cc(F)c2n1 [Compound 286, N-[(1R,3s,5S)-1,5-dimethyl-8-azabicyclo[3.2.1]octan-3-yl]-6-(8-fluoro-2-methylimidazo[1,2-a]pyridin-6-yl)-N-methyl[1,3]thiazolo[4,5-c]pyridin-2-amine]",≤ 100 nM
7,"Cn1cc2cc(-c3cc4sc(NC5CC(C)(C)NC(C)(C)C5)nc4cn3)cc(F)c2n1 [Compound 232, 6-(7-fluoro-2-methyl-2H-indazol-5-yl)-N-(2,2,6,6-tetramethylpiperidin-4-yl)[1,3]thiazolo[4,5-c]pyridin-2-amine]",≤ 100 nM
8,"Cc1cn2nc(-c3cc(F)c4nc(C5CCNCC5)sc4c3)ccc2n1 [Compound 45, 6-[4-fluoro-2-(piperidin-4-yl)-1,3-benzothiazol-6-yl]-2-methylimidazo[1,2-b]pyridazine]",≤ 100 nM
9,"Cc1cc(-c2ccc3nc(C4CCNCC4)sc3c2)cc2cn(C)nc12 [Compound 22, 6-(2,7-dimethyl-2H-indazol-5-yl)-2-(piperidin-4-yl)-1,3-benzothiazole]",≤ 100 nM
10,Cc1cn2cc(-c3cc4sc(N(C)[C@H]5C[C@]6(C)CC[C@@](C)(N6)[C@H]5F)nc4cn3)cc(F)c2n1 [Compound 326],≤ 100 nM
11,"Cc1cn2nc(-c3cc(F)c4nc(OC5CCNCC5)sc4c3)cc(C)c2n1 [Compound 306, 6-{4-fluoro-2-[(piperidin-4-yl)oxy]-1,3-benzothiazol-6-yl}-2,8-dimethylimidazo[1,2-b]pyridazine]",≤ 100 nM
12,"CNc1cc(-c2cc(F)c3nc(C4CCNCC4)sc3c2)nn2cc(C)nc12 [Compound 167, 6-[4-fluoro-2-(piperidin-4-yl)-1,3-benzothiazol-6-yl]-N,2-dimethylimidazo[1,2-b]pyridazin-8-amine]",≤ 100 nM
13,"Cc1cn2nc(-c3ccc4nc(C5CCNCC5)sc4c3)cc(C)c2n1 [Compound 139, 2,8-dimethyl-6-[2-(piperidin-4-yl)-1,3-benzothiazol-6-yl]imidazo[1,2-b]pyridazine]",≤ 100 nM
14,"CN1CC[C@H]2CN(c3nc4nnc(-c5ccc(-c6cn[nH]c6)cc5O)cc4s3)[C@H]2C1 [Compound 390, 2-{6-[(1R,6S)-3-methyl-3,8-diazabicyclo[4.2.0]octan-8-yl][1,3]thiazolo[4,5-c]pyridazin-3-yl}-5-(1H-pyrazol-4-yl)phenol]",≤ 100 nM
15,"Cc1cn2nc(-c3cc4sc(N(C)C5CC(C)(C)NC(C)(C)C5)nc4cn3)ccc2n1 [Compound 89, N-methyl-6-(2-methylimidazo[1,2-b]pyridazin-6-yl)-N-(2,2,6,6-tetramethylpiperidin-4-yl)[1,3]thiazolo[4,5-c]pyridin-2-amine]",500 to 1000 nM
16,"CCc1cc(-c2ccc3nc(C4CCNCC4)sc3c2)cc2cn(C)nc12 [Compound 85, 6-(7-ethyl-2-methyl-2H-indazol-5-yl)-2-(piperidin-4-yl)-1,3-benzothiazole]",100 to 500 nM
17,"CC1CC(c2nc3ccc(-c4ccc5nn(C)cc5c4)cc3s2)=CCN1 (centres unmarked) [Compound 65, 6-(2-methyl-2H-indazol-5-yl)-2-(2-methyl-1,2,3,6-tetrahydropyridin-4-yl)-1,3-benzothiazole]",100 to 500 nM
18,"Cc1cc(-c2ncc3nc(N(C)C4CC(C)(C)NC(C)(C)C4)sc3n2)cc2cn(C)nc12 [Compound 122, 5-(2,7-dimethyl-2H-indazol-5-yl)-N-methyl-N-(2,2,6,6-tetramethylpiperidin-4-yl)[1,3]thiazolo[5,4-d]pyrimidin-2-amine]",100 to 500 nM

row,SMILES,IC50
1,"Cc1cn2cc(-c3ccc4nc(C5CCNCC5)sc4c3)cnc2n1 [Compound 156, 2-methyl-6-[2-(piperidin-4-yl)-1,3-benzothiazol-6-yl]imidazo[1,2-a]pyrimidine]",1000 to 3000 nM
2,"CN(c1nc2ccc(-c3cc(C#N)c4nn(C)cc4c3)nc2s1)C1CC(C)(C)NC(C)(C)C1 [Compound 148, 2-methyl-5-{2-[methyl(2,2,6,6-tetramethylpiperidin-4-yl)amino][1,3]thiazolo[5,4-b]pyridin-5-yl}-2H-indazole-7-carbonitrile]",≤ 100 nM
3,"Cc1cn2nc(-c3cc(F)c4nc(N(C)C5CNC5)sc4c3)cc(C)c2n1 [Compound 248, N-(azetidin-3-yl)-6-(2,8-dimethylimidazo[1,2-b]pyridazin-6-yl)-4-fluoro-N-methyl-1,3-benzothiazol-2-amine]",100 to 500 nM
4,"Cc1cn2cc(-c3ccc4nc(N(C)C5CC(C)(C)NC(C)(C)C5)sc4c3)cc(F)c2n1 [Compound 111, 6-(8-fluoro-2-methylimidazo[1,2-a]pyridin-6-yl)-N-methyl-N-(2,2,6,6-tetramethylpiperidin-4-yl)-1,3-benzothiazol-2-amine]",≤ 100 nM
5,"Cn1cc2cc(-c3cc(F)c4nc(C5CCNCC5)sc4c3)cc(CN)c2n1 [Compound 103, 1-{5-[4-fluoro-2-(piperidin-4-yl)-1,3-benzothiazol-6-yl]-2-methyl-2H-indazol-7-yl}methanamine]",≤ 100 nM
6,"Cc1cn2nc(-c3cc(F)c4nc(N(C)C5CC(C)(C)NC(C)(C)C5)sc4c3)ccc2n1 [Compound 37, 4-fluoro-N-methyl-6-(2-methylimidazo[1,2-b]pyridazin-6-yl)-N-(2,2,6,6-tetramethylpiperidin-4-yl)-1,3-benzothiazol-2-amine]",≤ 100 nM
7,"Cc1cn2cc(-c3cc4sc(N(C)C5CC(C)(C)NC(C)(C)C5)nc4cn3)cc(F)c2n1 [Compound 147, 6-(8-fluoro-2-methylimidazo[1,2-a]pyridin-6-yl)-N-methyl-N-(2,2,6,6-tetramethylpiperidin-4-yl)[1,3]thiazolo[4,5-c]pyridin-2-amine]",≤ 100 nM
8,"CN(c1nc2cnc(-c3cc(F)c4nn(C)cc4c3)nc2s1)C1CC2CCC(C1)N2 (stereo not drawn) [Compound 218, N-[(3-exo)-8-azabicyclo[3.2.1]oct-3-yl]-5-(7-fluoro-2-methyl-2H-indazol-5-yl)-N-methyl[1,3]thiazolo[5,4-d]pyrimidin-2-amine]",100 to 500 nM
9,"Cc1cn2nc(-c3cc(F)c4nc(C5CCN[C@H](C)C5)sc4c3)ccc2n1 (stereo partly drawn) [Compound 144, 6-{4-fluoro-2-[(2R)-2-methylpiperidin-4-yl]-1,3-benzothiazol-6-yl}-2-methylimidazo[1,2-b]pyridazine]",≤ 100 nM
10,"CN(c1nc2ccc(-c3cc(C#N)c4nn(C)cc4c3)cc2s1)C1CC(C)(C)NC(C)(C)C1 [Compound 62, 2-methyl-5-{2-[methyl(2,2,6,6-tetramethylpiperidin-4-yl)amino]-1,3-benzothiazol-6-yl}-2H-indazole-7-carbonitrile]",≤ 100 nM
11,"Cc1cn2cc(-c3cc4sc(N(C)C5CC6CCCC(C5)N6C)nc4cn3)cc(C#N)c2n1 (centres unmarked) [Compound 270, 2-methyl-6-{2-[methyl(9-methyl-9-azabicyclo[3.3.1]non-3-yl)amino][1,3]thiazolo[4,5-c]pyridin-6-yl}imidazo[1,2-a]pyridine-8-carbonitrile]",≤ 100 nM
12,"Cc1cn2cc(-c3ncc4nc(N(C)C5C[C@H]6CCC[C@@H](C5)N6)sc4n3)cc(C#N)c2n1 (stereo partly drawn) [Compound 256, 6-{2-[(1R,5S)-9-azabicyclo[3.3.1]non-3-yl(methyl)amino][1,3]thiazolo[5,4-d]pyrimidin-5-yl}-2-methylimidazo[1,2-a]pyridine-8-carbonitrile]",≤ 100 nM
13,"CN1C[C@H](F)[C@H](Nc2nc3nnc(-c4ccc(-c5cn[nH]c5)cc4O)cc3s2)C1 [Compound 336, 2-(6-{[(3R,4S)-4-fluoro-1-methylpyrrolidin-3-yl]amino}[1,3]thiazolo[4,5-c]pyridazin-3-yl)-5-(1H-pyrazol-4-yl)phenol]",1000 to 3000 nM
14,"COc1cc(-c2cc(F)c3nc(N(C)C4CC(C)(C)NC(C)(C)C4)sc3c2)nn2cc(C)nc12 [Compound 200, 4-fluoro-6-(8-methoxy-2-methylimidazo[1,2-b]pyridazin-6-yl)-N-methyl-N-(2,2,6,6-tetramethylpiperidin-4-yl)-1,3-benzothiazol-2-amine]",≤ 100 nM
15,"Cn1cc2cc(-c3nc4ccc(C5=CCNCC5)cc4s3)ccc2n1 [Compound 4, 2-(2-methyl-2H-indazol-5-yl)-6-(1,2,3,6-tetrahydropyridin-4-yl)-1,3-benzothiazole]",100 to 500 nM
16,"CN1CCC(c2ccc3nc(-c4ccc5nn(C)cc5c4)sc3c2)CC1 [Compound 10, 2-(2-methyl-2H-indazol-5-yl)-6-(1-methylpiperidin-4-yl)-1,3-benzothiazole]",1000 to 3000 nM
17,"Cc1cn2cc(-c3cc4sc(N(C)C5CCN(C)C(C)C5)nc4cn3)cc(F)c2n1 (centres unmarked) [Compound 380, N-(1,2-dimethylpiperidin-4-yl)-6-(8-fluoro-2-methylimidazo[1,2-a]pyridin-6-yl)-N-methyl[1,3]thiazolo[4,5-c]pyridin-2-amine]",100 to 500 nM
